What was measured:
HepG2 cell xenografts = experiment: Human hepatocellular carcinoma xenograft model; format: in vivo, C.B-17 SCID mice; details: 0.3 mg/kg doxorubicin, 10 mg/kg 5-fluorouracil, i.p. once a day for 21 days
Protocol: Animals were housed in cages with free access to food and water. All animals were kept under a 12:12 h light-dark cycle (lights on at 6:00 a.m.). The local Animal Ethics Committee approved the experimental protocol (number 06/2015).
HepG2 cells (1 × 10^7 cells per 500 µL) were implanted subcutaneously into the left front armpit of the mice. […] The treatments were initiated one day after the tumor cell injection. The animals were treated intraperitoneally (200 µL per animal) once daily for 21 consecutive days. On the 22nd day, the animals were anesthetized, and peripheral blood samples were collected from the brachial artery. Animals were euthanized by anesthetic overdose, and tumors were excised and weighed.

HepG2 cells [1] = experiment: Mitochondrial transmembrane potential (rhodamine 123); format: cell-based, human; details: HepG2, 24 h
Protocol: Mitochondrial transmembrane potential was determined by the retention of the rhodamine 123 dye[38]. Cells were incubated with rhodamine 123 (5 μg/mL, Sigma-Aldrich Co.) at 37 °C for 15 min in the dark and washed with saline.

HepG2 cells [2] = experiment: Annexin V/PI staining assay (flow cytometry); details: HepG2, 12 and 24 µM, 12-72 h
Protocol: For apoptosis detection, we used the FITC Annexin V Apoptosis Detection Kit I (BD Biosciences), and the analysis was performed according to the manufacturer’s instructions. Briefly, cells were washed twice with saline and then resuspended in 100 μL of binding buffer with 5 μL of PI and 5 μL of FITC Annexin V. The cells were gently mixed by vortexing and incubated for 15 min at room temperature in the dark. Afterwards, 400 μL of binding buffer was added to each tube, and the cell fluorescence was determined by flow cytometry, as described above. The percent of viable, early apoptotic, late apoptotic and necrotic cells were determined. […] The cells were then trypsinized, and the FITC Annexin V Apoptosis Detection assay was conducted as described above.

caspase-3 = experiment: Caspase-3 colorimetric activation assay; format: cell-based, human; details: HepG2, 48 h
Protocol: (§1) A caspase-3 colorimetric assay kit (Sigma-Aldrich), caspase-8 colorimetric assay kit (BioVision Inc.; Milpitas, CA, USA) and caspase-9 colorimetric assay kit (Invitrogen; Frederick, MD, USA) were used to investigate the activation of caspase-3, -8 and -9 in RCX-treated HepG2, respectively. […] Briefly, cells were lysed by incubation with cell lysis buffer on ice for 10 min and then centrifuged. Enzyme reactions were carried out in a 96-well flat-bottom microplate. To each reaction mixture, 5 μL of cell lysate was added. Absorbance at 405 nm was measured using the SpectraMax 190 Microplate Reader (Molecular Devices). The results are expressed as the specific activity (IU/mg protein) of each caspase.

caspase-8 = experiment: Caspase-8 colorimetric activation assay; format: cell-based, human; details: HepG2, 48 h
Protocol: as §1

HepG2 cells [3] = experiment: DNA synthesis quantification (methyl-[3H]-thymidine incorporation); format: cell-based, human
Protocol: Cellular DNA synthesis was quantified by the incorporation of methyl-[^3H]-thymidine. Methyl-[^3H]-thymidine is a radiolabeled DNA precursor that is incorporated into newly synthesized DNA. Briefly, the complex was added along with 1 µCi of methyl-[^3H]-thymidine (PerkinElmer; Shelton, CT, USA) and incubated for 3 h. After this incubation period, cultures were harvested using a cell harvester (Brandel, Inc., Gaithersburg, MD, USA), and the amount of incorporated^3H-thymidine was determined using a liquid scintillation cocktail Hidex Maxilight (PerkinElmer Life Sciences; Groningen, GE, Netherlands) and a plate CHAMELEON V multilabel Counter (Mustionkatu 2, Turku, Finland). Mitoxantrone (Sigma-Aldrich) was used as the positive control.

caspase-9 = experiment: Caspase-9 colorimetric activation assay; format: cell-based, human; details: HepG2, 48 h
Protocol: as §1

p38 MAPK (pT180/pY182) = experiment: Phosflow analysis; format: cell-based, human; details: HepG2, 12 µM RCX, 15 min, 30 min, 24 h
Protocol: (§2) Phosphorylated ERK 1/2, JNK/SAPK and p38 MAPK were analyzed by flow cytometry. In brief, cells were collected and resuspended in 0.5–1 mL of 4% formaldehyde and fixed for 10 min at 37 °C. Then, the tubes were chilled on ice for 1 min. The cells were permeabilized by slowly adding ice-cold 100% methanol to prechilled cells while gently vortexing to a final concentration of 90% methanol and were incubated for 30 min on ice. After washing with incubation buffer (0.5% bovine serum albumin in PBS), PE mouse anti-ERK1/2 (pT202/pY204), PE mouse anti-JNK/SAPK (pT183/pY185), PE mouse anti-p38 MAPK (pT180/pY182) or PE mouse IgG1, κ isotype control antibodies, all from BD Biosciences, were added and incubated for 1 h at room temperature.

ERK1/2 (pT202/pY204) = experiment: Phosflow analysis; format: cell-based, human; details: HepG2, 12 µM RCX, 15 min, 30 min, 24 h
Protocol: as §2

## COc1cccc2c1C(=O)c1c(O)c3c(c(O)c1C2=O)C[C@@](O)(C(=O)CO)C[C@@H]3O[C@H]1C[C@H](N)[C@H](O)[C@H](C)O1 [DOX, doxorubicin]
HepG2 cell xenografts
  reduction of tumor weight: 27.2%

## COc1cc([O-])c(C(C)=O)c(OC)c1.F[P-](F)(F)(F)(F)F.[Ru+2].c1cnc2c(c1)ccc1cccnc12.c1cnc2c(c1)ccc1cccnc12 [RCX, cis-[Ru(phen)2(xant)](PF6)]
HepG2 cells [1]
  mitochondrial membrane potential: induced mitochondrial depolarization
HepG2 cells [2]
  induction of apoptosis: caused apoptosis in a time- and concentration-dependent manner
caspase-3
  caspase-3 activity: caused the activation of all caspases analyzed
caspase-8
  caspase-8 activity: caused the activation of all caspases analyzed
HepG2 cells [3]; HepG2, 12 μM
  reduction of DNA synthesis: 46.4%
HepG2 cells [3]; HepG2, 24 μM
  reduction of DNA synthesis: 65.2%
caspase-9
  caspase-9 activity: caused the activation of all caspases analyzed
p38 MAPK (pT180/pY182)
  phosphorylation of p38 MAPK: an increase in the phosphorylation of p38 MAPK was not observed at any time point investigated
ERK1/2 (pT202/pY204)
  phosphorylation of ERK1/2: induced the phosphorylation of ERK1/2 after 15- and 30-min incubations
